We go through 14 molecules from US20070265301A1, “Dpp-IV Inhibitors” (priority 2004, published 2007).

pIC50: −log10 of the molar value. Structures can show the parent of a compound that is named as a salt.

T1 sequence (P27487 31-766): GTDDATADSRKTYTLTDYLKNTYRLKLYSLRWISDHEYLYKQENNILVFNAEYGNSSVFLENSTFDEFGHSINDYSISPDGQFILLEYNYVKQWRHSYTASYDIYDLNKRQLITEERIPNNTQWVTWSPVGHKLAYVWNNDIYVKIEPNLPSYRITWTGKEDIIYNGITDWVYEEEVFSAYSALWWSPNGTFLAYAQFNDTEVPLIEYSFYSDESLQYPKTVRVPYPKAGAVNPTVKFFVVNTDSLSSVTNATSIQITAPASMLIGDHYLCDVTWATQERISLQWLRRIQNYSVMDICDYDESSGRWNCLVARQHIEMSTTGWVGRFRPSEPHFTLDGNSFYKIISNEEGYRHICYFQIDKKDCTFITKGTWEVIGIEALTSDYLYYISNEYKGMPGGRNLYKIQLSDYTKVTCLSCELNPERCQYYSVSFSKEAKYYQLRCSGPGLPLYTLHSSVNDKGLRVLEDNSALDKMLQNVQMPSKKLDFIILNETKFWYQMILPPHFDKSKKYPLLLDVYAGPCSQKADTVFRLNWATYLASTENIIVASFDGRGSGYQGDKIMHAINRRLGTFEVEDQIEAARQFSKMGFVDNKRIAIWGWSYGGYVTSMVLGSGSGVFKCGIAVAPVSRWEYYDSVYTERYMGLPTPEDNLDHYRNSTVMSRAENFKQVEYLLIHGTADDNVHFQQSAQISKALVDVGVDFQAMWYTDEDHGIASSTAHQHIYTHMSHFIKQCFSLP

This experiment concerns the target T1, DPP-IV (Homo sapiens, UniProt P27487).
T1 construct: Soluble human DPP-IV lacking the transmembrane anchor (Gly31-Pro766); Pre-Pro-alpha-mating factor leader (secretion signal) (N, cleaved yes); made in house
As to the kind of experiment: Continuous fluorimetric assay of DPP-IV peptidase activity (Gly-Pro-AMC cleavage). The class given is biochemical. The conditions noted are these: 50 pM DPP-IV, 16 μM Gly-Pro-AMC, pH 7.4, 25° C., 1% DMSO; values grouped in 3 classes; read-out: IC50 for inhibition of DPP-IV peptidase activity. Here is the method:
Inhibition of DPP-IV peptidase activity was monitored with a continuous fluorimetric assay. This assay is based on the cleavage of the substrate Gly-Pro-AMC (Bachem) by DPP-IV, releasing free AMC. The assay is carried out in 96-well microtiterplates. In a total volume of 100 μL, compounds are preincubated with 50 pM DPP-IV employing a buffer containing 10 mM Hepes, 150 mM NaCl, 0.005% Tween 20 (pH 7.4). The reaction is started by the addition of 16 μM substrate and the fluorescence of liberated AMC is detected for 10 minutes at 25° C. with a fluorescence reader (BMG-Fluostar; BMG-Technologies) using an excitation wavelength of 370 nm and an emission wavelength of 450 nm. The final concentration of DMSO is 1%. The inhibitory potential of the compounds were determined.
Soluble human DPP-IV lacking the transmembrane anchor (Gly31-Pro766) was expressed in a recombinant YEAST-strain as Pre-Pro-alpha-mating fusion. The secreted product (rhuDPP-IV-Gly31-Pro766) was purified from fermentation broth (>90% purity).
In the table are listed the IC50 values for inhibition of DPP-IV peptidase activity determined in assays as described above.
Turning to `NC(CC(=O)N1Cc2ccccc2C[C@H]1CNS(=O)(=O)C1CC1)Cc1cc(F)ccc1F` (mixture of isomers) [Example 11, Cyclopropanesulfonic acid {2-[(3-amino-4-(2,5-difluoro-phenyl)-butyryl]-1,2,3,4-tetrahydro-isoquinolin-(3S)-3-ylmethyl}-amide, trifluoroacetate salt], the pIC50 is ≥ 7.00.
Under `N[C@@H](CC(=O)N1c2ccccc2CC1COCc1ccccc1)Cc1ccccc1F` (mixture of isomers) [Example 13, (3R)-3-Amino-1-benzyloxymethyl-2,3-dihydro-indo-1-yl)-4-(2-fluorophenyl)-butan-1-one trifluoroacetate salt] stands 5.70 to 6.00.
Under `N[C@@H](CC(=O)N1Cc2ccccc2C[C@H]1CNC(=O)C1CC1)Cc1ccccc1F` [Example 1, Cyclopropanecarboxylic acid {2-[(3R)-3-amino-4-(2-fluoro-phenyl)-butyryl]-1,2,3,4-tetrahydro-isoquinolin-(3S)-3-ylmethyl]-amide, trifluoroacetate salt] stands 6.00 to 7.00.
`N[C@@H](CC(=O)N1Cc2ccccc2C[C@H]1CNC(=O)C1(O)CC1)Cc1ccccc1F` [Example 2, 1-Hydroxy-cyclopropanecarboxylic acid {2-[(3R)-3-amino-4-(2-fluoro-phenyl)-butyryl]-1,2,3,4-tetrahydro-isoquinolin-(3S)-3-ylmethyl}-amide, trifluoroacetate salt]: the negative logarithm of the IC50 (pIC50) was 6.00 to 7.00.
As for `N[C@@H](CC(=O)N1Cc2ccccc2C[C@H]1CNC(=O)CO)Cc1ccccc1F` [Example 3, N-{2-[(3R)-3-Amino-4-(2-fluoro-phenyl)-butyryl-1,2,3,4-tetrahydroisoquinolin-(3S)-3-ylmethyl}-2-hydroxy-acetamide, trifluoroacetate salt], the figure is 6.00 to 7.00; as for `N[C@@H](CC(=O)N1Cc2ccccc2C[C@H]1CNC(=O)c1ccccc1)Cc1ccccc1F` [Example 4, N-{2-[(3R)-3-Amino-4-(2-fluoro-phenyl)-butyryl}-1,2,3,4-tetrahydro-isoquinolin-(3S)-3-ylmethyl}-benzamide, trifluoroacetate salt], ≥ 7.00; as for `Cc1cc(C(=O)NC[C@@H]2Cc3ccccc3CN2C(=O)C[C@H](N)Cc2ccccc2F)no1` [Example 5, 5-Methyl-isoxazole-3-carboxylic acid-{2-[(3R)-3-amino-4-(2-fluoro-phenyl)-butyryl]-1,2,3,4-tetrahydro-isoquinolin-(3S)-3-ylmethyl}-amide, trifluoroacetate salt], ≥ 7.00.
Under `Nc1nc(C(=O)NC[C@@H]2Cc3ccccc3CN2C(=O)C[C@H](N)Cc2ccccc2F)n[nH]1` [Example 6, 5-Amino-1H-[1,2,4]triazole-3-carboxylic acid-{2-[(3R)-3-amino-4-(2-fluoro-phenyl)-butyryl]-1,2,3,4-tetrahydro-isoquinolin-(3S)-3-ylmethyl-amide, trifluoroacetate salt] stands ≥ 7.00; under `CN(C)C[C@@H]1Cc2ccccc2CN1C(=O)C[C@H](N)Cc1ccccc1F` [Example 7, (3R)-3-Amino-1-(3S)-3-(3-dimethylaminomethyl-3,4-dihydro-1H-isoquinolin-2-yl)-4-(2-fluorophenyl)-butan-1-one, trifluoroacetate salt], 5.70 to 6.00.
Consider `CS(=O)(=O)NC[C@@H]1Cc2ccccc2CN1C(=O)C[C@H](N)Cc1ccccc1F` [Example 8, N-{2-[(3R)-3-Amino-4-[2-fluoro-phenyl)-butyryl]-1,2,3,4-tetrahydro-isoquinolin-(3S)-3-ylmethyl}-methanesulfonamide, trifluoroacetate salt], for which the pIC50 is ≥ 7.00.
Turning to `N[C@@H](CC(=O)N1Cc2ccccc2C[C@H]1CNS(=O)(=O)C1CC1)Cc1ccccc1F` [Example 9, Cyclopropanesulfonic acid {2-[(3R)-3-amino-4-(2-fluoro-phenyl)-butyryl]-1,2,3,4-tetrahydro-isoquinolin-(3S)-3-ylmethyl-amide, trifluoroacetate salt], the pIC50 was ≥ 7.00.
For `N[C@@H](CC(=O)N1Cc2ccccc2C[C@H]1CNS(=O)(=O)C1CC1)Cc1cccc(Cl)c1` [Example 10, Cyclopropanesulfonic acid {2-[(3R)-3-amino-4-(3-chloro-phenyl)-butyryl]-1,2,3,4-tetrahydro-isoquinolin-(3S)-3-ylmethyl]-amide, trifluoroacetate salt], the pIC50 was ≥ 7.00.
Under `N[C@@H](CC(=O)N1Cc2ccccc2C[C@H]1COc1cccc(F)c1)Cc1ccccc1F` [Example 12, trifluoroacetate salt] stands ≥ 7.00; under `N[C@@H](CC(=O)N1Cc2ccccc2CC1COCc1ccccc1)Cc1ccccc1F` (stereo partly drawn) [Example 14, (3R)-3-Amino-1-benzyloxymethyl-3,4-dihydro-1H-isoquinolin-2-yl)-4-(2-fluorophenyl)-butan-1-one, trifluoroacetate salt], ≥ 7.00.
